This passage reports Kd results from publication PMC7600243, “Live Imaging of Phosphate Levels in Arabidopsis Root Cells Expressing a FRET-Based Phosphate Sensor” (Plants, 2020).

For orientation: Kd means the concentration at which binding is half-saturated.

The target of the test is PiBP (Pi binding bacterial periplasmic Binding Protein) of the FLIPPi sensors FLIPPi-30m and FLIPPi-4µ. Particulars: pH 7.0; 20 mM Tris-HCl or MOPS; in planta, externally applied Pi buffer 0-200 mM; inhibitor dose response fit, variable slope.

On to `O=P(O)(O)O` [Pi, inorganic phosphate], for which the Kd turned out to be 35 mM.
